{
  "source": "patent US10780090B2",
  "about": "“Heteroaryl compounds useful as inhibitors of SUMO activating enzyme” (Millennium Pharmaceuticals, Inc., priority 2014, dated 2020)",
  "target": "recombinant human SAE enzyme (Homo sapiens (Human), UniProt Q9UBT2)",
  "sequence (Q9UBT2 whole entry)": "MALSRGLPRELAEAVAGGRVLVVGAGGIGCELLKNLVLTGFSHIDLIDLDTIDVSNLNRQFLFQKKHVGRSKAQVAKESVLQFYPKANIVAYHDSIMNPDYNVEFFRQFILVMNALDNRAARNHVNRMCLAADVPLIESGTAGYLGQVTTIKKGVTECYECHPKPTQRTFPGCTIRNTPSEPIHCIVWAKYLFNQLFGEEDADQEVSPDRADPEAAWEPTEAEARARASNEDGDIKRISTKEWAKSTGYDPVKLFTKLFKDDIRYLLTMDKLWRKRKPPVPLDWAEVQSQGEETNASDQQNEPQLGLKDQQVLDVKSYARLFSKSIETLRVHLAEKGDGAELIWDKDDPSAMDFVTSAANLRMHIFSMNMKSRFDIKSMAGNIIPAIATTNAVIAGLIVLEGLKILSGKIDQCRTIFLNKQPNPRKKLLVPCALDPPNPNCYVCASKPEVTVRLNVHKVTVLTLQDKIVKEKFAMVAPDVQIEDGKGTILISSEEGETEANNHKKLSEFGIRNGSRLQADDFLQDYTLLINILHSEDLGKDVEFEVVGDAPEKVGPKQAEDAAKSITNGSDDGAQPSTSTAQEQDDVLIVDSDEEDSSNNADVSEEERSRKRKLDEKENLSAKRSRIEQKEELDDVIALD",
  "sequence (Q9UBE0 whole entry partner)": "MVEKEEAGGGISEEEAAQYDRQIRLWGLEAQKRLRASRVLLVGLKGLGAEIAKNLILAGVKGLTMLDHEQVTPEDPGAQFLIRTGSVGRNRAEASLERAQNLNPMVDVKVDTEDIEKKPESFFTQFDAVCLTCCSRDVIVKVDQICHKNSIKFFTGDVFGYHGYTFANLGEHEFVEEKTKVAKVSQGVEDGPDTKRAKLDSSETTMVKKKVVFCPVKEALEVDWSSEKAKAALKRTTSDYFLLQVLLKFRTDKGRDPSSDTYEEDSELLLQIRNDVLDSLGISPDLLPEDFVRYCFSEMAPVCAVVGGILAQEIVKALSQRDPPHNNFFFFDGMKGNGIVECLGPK",
  "assay": "SAE HTRF enzyme assay",
  "type": "biochemical",
  "details": "for Percent Inhibition: SAE inhibition at compound concentration 0.111 μM; for IC50: SAE inhibition, class symbols, legend in nM",
  "outline": "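Sumoylation of Ubc9-GST by SAE was followed at low ATP (0.5 μM), pH 7.5, 24° C. for 105 min. Product was detected by HTRF with antibody pairs against Flag and GST tags.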",
  "data": [
    {"smiles": "Cc1sc(C(=O)c2cncnc2N[C@@H]2C[C@H](COS(N)(=O)=O)[C@@H](O)C2)cc1[C@H]1OCOc2ccccc21", "note": "(mixture of isomers) [I-280, [(1R,2S,4R)-4-{[5-({4-[(4R)-4H-1,3-benzodioxin-4-yl]-5-methyl-2-thienyl}carbonyl)pyrimidin-4-yl]amino}-2-hydroxycyclopentyl]methyl sulfamate and [(1R,2S,4R)-4-{[5-({4-[(4S)-4H-1,3-benzodioxin-4-yl]-5-methyl-2-thienyl}carbonyl)pyrimidin-4-yl]amino}-2-hydroxycyclopentyl]methyl sulfamate]", "values": [
      {"measurement": "Percent Inhibition", "result": 98, "unit": "%"},
      {"measurement": "IC50", "result": "< 10", "unit": "nM"}
    ]},
    {"smiles": "NS(=O)(=O)OC[C@H]1C[C@@H](Nc2ncncc2C(=O)c2cc([C@H]3OCC4(CC4)c4ccccc43)cs2)C[C@@H]1O", "note": "(mixture of isomers) [I-281, [(1R,2S,4R)-2-hydroxy-4-{[5-({4-[(1′R)-1′H-spiro[cyclopropane-1,4′-isochromen]-1′-yl]-2-thienyl}carbonyl)pyrimidin-4-yl]amino}cyclopentyl]methyl sulfamate and [(1R,2S,4R)-2-hydroxy-4-{[5-({4-[(1′S)-1′H-spiro[cyclopropane-1,4′-isochromen]-1′-yl]-2-thienyl}carbonyl)pyrimidin-4-yl]amino}cyclopentyl]methyl sulfamate]", "values": [
      {"measurement": "Percent Inhibition", "result": 98, "unit": "%"},
      {"measurement": "IC50", "result": "< 10", "unit": "nM"}
    ]},
    {"smiles": "NS(=O)(=O)OCC1CC(Nc2ncncc2C(=O)c2cc(C3OCCc4ccc(Cl)cc43)c(Cl)s2)CC1O", "note": "(mixture of isomers) [I-282, [(1R,2S,4R)-4-{[5-({5-chloro-4-[(1R)-7-chloro-3,4-dihydro-1H-isochromen-1-yl]-2-thienyl}carbonyl)pyrimidin-4-yl]amino}-2-hydroxycyclopentyl]methyl sulfamate and [(1R,2S,4R)-4-{[5-({5-chloro-4-[(1S)-7-chloro-3,4-dihydro-1H-isochromen-1-yl]-2-thienyl}carbonyl)pyrimidin-4-yl]amino}-2-hydroxycyclopentyl]methyl sulfamate]", "values": [
      {"measurement": "Percent Inhibition", "result": 100, "unit": "%"},
      {"measurement": "IC50", "result": "< 10", "unit": "nM"}
    ]},
    {"smiles": "Cc1sc(C(=O)c2cncnc2N[C@@H]2C[C@H](COS(N)(=O)=O)[C@@H](O)C2)cc1[C@@H]1OCCc2cccnc21", "note": "(mixture of isomers) [I-285, [(1R,2S,4R)-4-{[5-({4-[(8S)-5,8-dihydro-6H-pyrano[3,4-b]pyridin-8-yl]-5-methyl-2-thienyl}carbonyl)pyrimidin-4-yl]amino}-2-hydroxycyclopentyl]methyl sulfamate and [(1R,2S,4R)-4-{[5-({4-[(8R)-5,8-dihydro-6H-pyrano[3,4-b]pyridin-8-yl]-5-methyl-2-thienyl}carbonyl)pyrimidin-4-yl]amino}-2-hydroxycyclopentyl]methyl sulfamate]", "values": [
      {"measurement": "Percent Inhibition", "result": 100, "unit": "%"},
      {"measurement": "IC50", "result": "< 10", "unit": "nM"}
    ]},
    {"smiles": "Cc1sc(C(=O)c2cncnc2N[C@@H]2C[C@H](COS(N)(=O)=O)[C@@H](O)C2)cc1[C@@H]1OCCc2ccc(Cl)nc21", "note": "(mixture of isomers) [I-286, [(1R,2S,4R)-4-{[5-({4-[(8S)-2-chloro-5,8-dihydro-6H-pyrano[3,4-b]pyridin-8-yl]-5-methyl-2-thienyl}carbonyl)pyrimidin-4-yl]amino}-2-hydroxycyclopentyl]methyl sulfamate and [(1R,2S,4R)-4-{[5-({4-[(8R)-2-chloro-5,8-dihydro-6H-pyrano[3,4-b]pyridin-8-yl]-5-methyl-2-thienyl}carbonyl)pyrimidin-4-yl]amino}-2-hydroxycyclopentyl]methyl sulfamate]", "values": [
      {"measurement": "Percent Inhibition", "result": 99, "unit": "%"},
      {"measurement": "IC50", "result": "< 10", "unit": "nM"}
    ]},
    {"smiles": "Cc1nc2c(s1)CCO[C@H]2c1cc(C(=O)c2cncnc2N[C@@H]2C[C@H](COS(N)(=O)=O)[C@@H](O)C2)sc1C", "note": "(mixture of isomers) [I-287, [(1R,2S,4R)-2-hydroxy-4-{[5-({5-methyl-4-[(4S)-2-methyl-6,7-dihydro-4H-pyrano[3,4-d][1,3]thiazol-4-yl]-2-thienyl}carbonyl)pyrimidin-4-yl]amino}cyclopentyl]methyl sulfamate and [(1R,2S,4R)-2-hydroxy-4-{[5-({5-methyl-4-[(4R)-2-methyl-6,7-dihydro-4H-pyrano[3,4-d][1,3]thiazol-4-yl]-2-thienyl}carbonyl)pyrimidin-4-yl]amino}cyclopentyl]methyl sulfamate]", "values": [
      {"measurement": "Percent Inhibition", "result": 97, "unit": "%"},
      {"measurement": "IC50", "result": "< 10", "unit": "nM"}
    ]},
    {"smiles": "Cc1sc(C(=O)c2cncnc2N[C@@H]2C[C@H](COS(N)(=O)=O)[C@@H](O)C2)cc1[C@@H]1OCC(F)(F)c2ccc(Cl)cc21.Cc1sc(C(=O)c2cncnc2N[C@@H]2C[C@H](COS(N)(=O)=O)[C@@H](O)C2)cc1[C@H]1OCC(F)(F)c2ccc(Cl)cc21", "note": "(mixture of isomers) [I-288, [(1R,2S,4R)-4-{[5-({4-[(1R)-7-chloro-4,4-difluoro-3,4-dihydro-1H-isochromen-1-yl]-5-methyl-2-thienyl}carbonyl)pyrimidin-4-yl]amino}-2-hydroxycyclopentyl]methyl sulfamate and [(1R,2S,4R)-4-{[5-({4-[(1S)-7-chloro-4,4-difluoro-3,4-dihydro-1H-isochromen-1-yl]-5-methyl-2-thienyl}carbonyl)pyrimidin-4-yl]amino}-2-hydroxycyclopentyl]methyl sulfamate]", "values": [
      {"measurement": "Percent Inhibition", "result": 99, "unit": "%"},
      {"measurement": "IC50", "result": "< 10", "unit": "nM"}
    ]},
    {"smiles": "NS(=O)(=O)OC[C@H]1C[C@@H](Nc2ncncc2C(=O)c2cc([C@@H]3OCC(F)(F)c4ccc(Cl)cc43)cs2)C[C@@H]1O.NS(=O)(=O)OC[C@H]1C[C@@H](Nc2ncncc2C(=O)c2cc([C@H]3OCC(F)(F)c4ccc(Cl)cc43)cs2)C[C@@H]1O", "note": "(mixture of isomers) [I-289, [(1R,2S,4R)-4-{[5-({4-[(1R)-7-chloro-4,4-difluoro-3,4-dihydro-1H-isochromen-1-yl]-2-thienyl}carbonyl)pyrimidin-4-yl]amino}-2-hydroxycyclopentyl]methyl sulfamate and [(1R,2S,4R)-4-{[5-({4-[(1S)-7-chloro-4,4-difluoro-3,4-dihydro-1H-isochromen-1-yl]-2-thienyl}carbonyl)pyrimidin-4-yl]amino}-2-hydroxycyclopentyl]methyl sulfamate]", "values": [
      {"measurement": "Percent Inhibition", "result": 98, "unit": "%"},
      {"measurement": "IC50", "result": "< 10", "unit": "nM"}
    ]},
    {"smiles": "Cc1ccc2c(n1)[C@H](c1cc(C(=O)c3cncnc3N[C@@H]3C[C@H](COS(N)(=O)=O)[C@@H](O)C3)sc1C)OCC2", "note": "(mixture of isomers) [I-291, [(1R,2S,4R)-2-hydroxy-4-{[5-({5-methyl-4-[(8S)-2-methyl-5,8-dihydro-6H-pyrano[3,4-b]pyridin-8-yl]-2-thienyl}carbonyl)pyrimidin-4-yl]amino}cyclopentyl]methyl sulfamate and [(1R,2S,4R)-2-hydroxy-4-{[5-({5-methyl-4-[(8R)-2-methyl-5,8-dihydro-6H-pyrano[3,4-b]pyridin-8-yl]-2-thienyl}carbonyl)pyrimidin-4-yl]amino}cyclopentyl]methyl sulfamate]", "values": [
      {"measurement": "Percent Inhibition", "result": 99, "unit": "%"},
      {"measurement": "IC50", "result": "< 10", "unit": "nM"}
    ]},
    {"smiles": "NS(=O)(=O)OC[C@H]1C[C@@H](Nc2ncncc2C(=O)c2cc([C@@H]3OCC(F)(F)c4ccccc43)cs2)C[C@@H]1O", "note": "(mixture of isomers) [I-293, [(1R,2S,4R)-4-{[5-({4-[(1R)-4,4-difluoro-3,4-dihydro-1H-isochromen-1-yl]-2-thienyl}carbonyl)pyrimidin-4-yl]amino}-2-hydroxycyclopentyl]methyl sulfamate and [(1R,2S,4R)-4-{[5-({4-[(1S)-4,4-difluoro-3,4-dihydro-1H-isochromen-1-yl]-2-thienyl}carbonyl)pyrimidin-4-yl]amino}-2-hydroxycyclopentyl]methyl sulfamate]", "values": [
      {"measurement": "Percent Inhibition", "result": 98, "unit": "%"},
      {"measurement": "IC50", "result": "< 10", "unit": "nM"}
    ]},
    {"smiles": "NS(=O)(=O)OC[C@H]1C[C@@H](Nc2ncncc2C(=O)c2cc([C@H]3NCCc4ccccc43)cs2)[C@H](O)[C@@H]1O", "note": "(mixture of isomers) [I-295, [(1R,2R,3S,4R)-2,3-dihydroxy-4-{[5-({4-[(1S)-1,2,3,4-tetrahydroisoquinolin-1-yl]-2-thienyl}carbonyl)pyrimidin-4-yl]amino}cyclopentyl]methyl sulfamate and [(1R,2R,3S,4R)-2,3-dihydroxy-4-{[5-({4-[(1R)-1,2,3,4-tetrahydroisoquinolin-1-yl]-2-thienyl}carbonyl)pyrimidin-4-yl]amino}cyclopentyl]methyl sulfamate]", "values": [
      {"measurement": "Percent Inhibition", "result": 99, "unit": "%"},
      {"measurement": "IC50", "result": "< 10", "unit": "nM"}
    ]},
    {"smiles": "Cc1sc(C(=O)c2cncnc2N[C@@H]2C[C@H](COS(N)(=O)=O)[C@@H](O)C2)cc1[C@@H]1OCCn2c(C)cnc21", "note": "(mixture of isomers) [I-296, [(1R,2S,4R)-2-hydroxy-4-{[5-({5-methyl-4-[(8S)-3-methyl-5,6-dihydro-8H-imidazo[2,1-c][1,4]oxazin-8-yl]-2-thienyl}carbonyl)pyrimidin-4-yl]amino}cyclopentyl]methyl sulfamate and [(1R,2S,4R)-2-hydroxy-4-{[5-({5-methyl-4-[(8R)-3-methyl-5,6-dihydro-8H-imidazo[2,1-c][1,4]oxazin-8-yl]-2-thienyl}carbonyl)pyrimidin-4-yl]amino}cyclopentyl]methyl sulfamate]", "values": [
      {"measurement": "Percent Inhibition", "result": 98, "unit": "%"},
      {"measurement": "IC50", "result": "< 10", "unit": "nM"}
    ]},
    {"smiles": "Cc1sc(C(=O)c2cncnc2N[C@@H]2C[C@H](COS(N)(=O)=O)[C@@H](O)C2)cc1[C@@H]1OCCc2ccc(C(F)(F)F)nc21.Cc1sc(C(=O)c2cncnc2N[C@@H]2C[C@H](COS(N)(=O)=O)[C@@H](O)C2)cc1[C@H]1OCCc2ccc(C(F)(F)F)nc21", "note": "(mixture of isomers) [I-297, [(1R,2S,4R)-2-hydroxy-4-{[5-({5-methyl-4-[(8S)-2-(trifluoromethyl)-5,8-dihydro-6H-pyrano[3,4-b]pyridin-8-yl]-2-thienyl}carbonyl)pyrimidin-4-yl]amino}cyclopentyl]methyl sulfamate and [(1R,2S,4R)-2-hydroxy-4-{[5-({5-methyl-4-[(8R)-2-(trifluoromethyl)-5,8-dihydro-6H-pyrano[3,4-b]pyridin-8-yl]-2-thienyl}carbonyl)pyrimidin-4-yl]amino}cyclopentyl]methyl sulfamate]", "values": [
      {"measurement": "Percent Inhibition", "result": 96, "unit": "%"},
      {"measurement": "IC50", "result": "< 10", "unit": "nM"}
    ]}
  ]
}
